The values below come from ChEMBL document CHEMBL1201862, “PubChem BioAssay data set” (2004).

What is called GI50 is the concentration at which growth is held to half of that of the control.

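Briefly, cells in 96-well plates were exposed to five compound concentrations for 48 h, and endpoints were estimated by linear interpolation. Here, GI50 denotes the concentration required for 50% inhibition of growth.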 Calls of active or inactive are those of the source. No stated cut-off is given here; in the data, active = GI50 up to about 1.1 µM and inactive = higher.

Common to all, as to assay: DTP human tumour cell line panel, 48 h
In assay [1] the test system is M14.
In assay [2] the test system is OVCAR-4.
The test system of assay [3] is SK-MEL-2.
Assay [4] relates to SW-620.
The subject of assay [5] is CCRF-CEM.
Assay [6] has as its system 786-0.
Assay [7] has as its system HL-60.
Assay [8] deals with SF-539.
The subject of assay [9] is HOP-92.
The subject of assay [10] is HCT-116.
Assay [11] has as its system HCC 2998.
Assay [12] concerns NCI-H522.
In assay [13] the test system is OVCAR-5.
The subject of assay [14] is RPMI-8226.
For assay [15], the system named is SK-MEL-5.
For assay [16], the system named is UO-31.
The subject of assay [17] is A498.
Assay [18] deals with U-251.
Assay [19] deals with SR.

In the case of `COc1cc2ccnc([C@@H](OC(=O)c3ccccc3)c3ccc(OC)c(OC)c3OC)c2cc1OC`, the GI50 in assay [1] was 78.3 µM (inactive); in assay [2] it was 31 µM (inactive); in assay [3], 60.4 µM (inactive); in [4], 36.5 µM (inactive); in assay [5], 53.2 µM (inactive); in assay [6], 35.6 µM (inactive). Further, the GI50 is 41.8 µM (inactive) in assay [7]; 47.5 µM (inactive) in assay [8]; 23.3 µM (inactive) in [9]; 33.9 µM (inactive) in assay [10]; 36.5 µM (inactive) in assay [11]; 27.8 µM (inactive) in [12]. Also, the GI50 was 23.8 µM (inactive) in assay [13]; 54.3 µM (inactive) in [14]; 23.1 µM (inactive) in [15]; 18.9 µM (inactive) in assay [16]; 36.1 µM (inactive) in assay [17]; 37.5 µM (inactive) in assay [18].
With `OCCSCC/C(=N\N=C(/CCSCCO)c1ccccc1)c1ccccc1`, the GI50 in assay [1] is > 100 µM (inactive); in assay [2] it was 61.4 µM (inactive); in [3], 84.7 µM (inactive); in assay [4], > 100 µM (inactive); in assay [5], 44.9 µM (inactive); in assay [6], 46.2 µM (inactive). Moreover, the GI50 is 88.5 µM (inactive) in assay [7]; > 100 µM (inactive) in assay [8]; 31.1 µM (inactive) in assay [9]; > 100 µM (inactive) in [11]; > 100 µM (inactive) in assay [13]; 39.4 µM (inactive) in assay [14]. Also, the GI50 is 88.7 µM (inactive) in [15], 91.4 µM (inactive) in [16] and > 100 µM (inactive) in assay [18].
Regarding `COC(=O)/C(C#N)=C1\CCC(O)N1` (configuration not stated), the GI50 in [1], in [2], in assay [3], in assay [4], in [5] and in [6] was > 100 µM (inactive) in each case. In addition, the GI50 in [7], in assay [8], in assay [10], in assay [19], in assay [11] and in [12] was > 100 µM (inactive) each time. The GI50 in [13], in [14], in assay [16] and in [18] was > 100 µM (inactive) each time.
Regarding `CN(CCc1ccccn1)c1nc(=[N+](C)C)ss1`, the GI50 is > 100 µM (inactive) in assay [1]; > 100 µM (inactive) in [2]; > 100 µM (inactive) in [3]; > 100 µM (inactive) in [4]; 81.3 µM (inactive) in assay [5]; > 100 µM (inactive) in assay [6]. The GI50 in assay [7] is > 100 µM (inactive); in assay [8], > 100 µM (inactive); in assay [9], > 100 µM (inactive); in assay [11] it was > 100 µM (inactive); in assay [12], 8.02 µM (inactive); in assay [13], > 100 µM (inactive). Besides, the GI50 in assay [14], in assay [15], in assay [16], in assay [17] and in assay [18] was > 100 µM (inactive) each time.
As for `O=C(NC(=S)Nc1ccccc1)c1ccc([N+](=O)[O-])cc1`, the GI50 in assay [1] was > 100 µM (inactive); in assay [2] it was 3.4 µM (inactive); in assay [4], > 100 µM (inactive); in assay [5], 31.3 µM (inactive); in assay [6] it was > 100 µM (inactive); in assay [7] it was 36.8 µM (inactive). The GI50 in assay [9] is 35.9 µM (inactive); in assay [10] it was > 100 µM (inactive); in assay [11], > 100 µM (inactive); in [12], 18.3 µM (inactive); in [13], 2.28 µM (inactive); in assay [14] it was 28.6 µM (inactive). Besides, the GI50 in [15] is 36 µM (inactive); in assay [16], 45.8 µM (inactive).
On to `N=C(N)Cn1cnc2ccccc21`, for which the GI50 in [1], in assay [3], in [4], in [5], in assay [6] and in [7] was > 100 µM (inactive) in each case. In addition, the GI50 in assay [8], in assay [11], in assay [12], in assay [13], in assay [14] and in assay [15] was > 100 µM (inactive) each time. Moreover, the GI50 in assay [16], in assay [17] and in assay [18] was > 100 µM (inactive) each time.
For the molecule `COc1cc(C(C)c2cc3c(cc2OCCN)OCO3)cc(OC)c1OC` (configuration not stated), the GI50 in assay [1] was > 100 µM (inactive); in [2], > 100 µM (inactive); in assay [3] it was 64.3 µM (inactive); in [4] it was > 100 µM (inactive); in assay [5], 35.2 µM (inactive); in assay [6], > 100 µM (inactive). The GI50 in assay [7] is 20 µM (inactive); in assay [8], > 100 µM (inactive); in assay [10], > 100 µM (inactive); in [19] it was 40.4 µM (inactive); in assay [11], > 100 µM (inactive); in [12] it was 78.5 µM (inactive). In addition, the GI50 in assay [13] is 46.6 µM (inactive); in [14], 37.3 µM (inactive); in assay [15], > 10 µM (inactive); in [16] it was 50.8 µM (inactive); in assay [17] it was > 100 µM (inactive); in assay [18], 42.5 µM (inactive).
In the case of `CCCCCCCCCC[C@@H](O)[C@@H]1CC[C@H]([C@H]2CC[C@@H]([C@@H](O)CCCCCCCCCC[C@H]3CC(CC(C)=O)C(=O)O3)O2)O1` (some centres not stated), the GI50 in assay [1] was 11.8 µM (inactive); in [2] it was < 0.01 µM (active); in [3] it was 14.4 µM (inactive); in assay [4], 13.5 µM (inactive); in [5], 3.07 µM (inactive); in [6], 11.4 µM (inactive). For the same molecule, the GI50 in assay [7] was < 0.01 µM (active); in assay [8], 10.8 µM (inactive); in [9], 14.7 µM (inactive); in assay [10], 1.18 µM (inactive); in assay [11] it was 25.5 µM (inactive); in assay [12], 0.0324 µM (active). The GI50 is 18 µM (inactive) in assay [13]; 1.01 µM (active) in assay [14]; < 0.01 µM (active) in assay [15]; 1.08 µM (active) in assay [16]; 16.2 µM (inactive) in [17]; 15 µM (inactive) in [18].
On to `O=C(O)C1CCC(=O)N1C(=O)C(Cl)c1ccccc1` (configuration not stated), for which the GI50 in assay [1], in assay [2], in assay [3], in [4], in assay [5] and in assay [6] was > 100 µM (inactive) throughout. For the same molecule, the GI50 in [7], in assay [9], in [10], in assay [11], in assay [12] and in assay [13] was > 100 µM (inactive) in each case. In addition, the GI50 in [14], in assay [15], in assay [16], in [17] and in [18] was > 100 µM (inactive) throughout.
With `CC(SC(=S)Nc1cccc(F)c1)C(=O)O` (configuration not stated), the GI50 in [1] was 16.8 µM (inactive); in [2], > 100 µM (inactive); in [3] it was 24.1 µM (inactive); in assay [4], 33.3 µM (inactive); in assay [5], 21.2 µM (inactive); in assay [6], 34.4 µM (inactive). Also, the GI50 in assay [7] is 13.3 µM (inactive); in assay [8], 18.3 µM (inactive); in assay [10] it was 19.2 µM (inactive); in [19], 13.8 µM (inactive); in assay [11], 30.9 µM (inactive); in [12], 13.4 µM (inactive). For the same molecule, the GI50 in assay [13] is 46.5 µM (inactive); in [14], 15.6 µM (inactive); in assay [16] it was 24.9 µM (inactive); in assay [17], 26.7 µM (inactive); in [18], 28.9 µM (inactive).
As for `Cc1nnc2n1N=C(CC(=O)c1ccc(O)cc1O)CN2N`, the GI50 in assay [1] was > 100 µM (inactive); in assay [2], > 100 µM (inactive); in assay [3], > 100 µM (inactive); in assay [4], 14.9 µM (inactive); in assay [5] it was > 100 µM (inactive); in [6], > 100 µM (inactive). Moreover, the GI50 in assay [7] is 75.3 µM (inactive); in [8] it was > 100 µM (inactive); in assay [10], 55.7 µM (inactive); in [11], > 100 µM (inactive); in assay [13] it was > 100 µM (inactive); in assay [15], > 100 µM (inactive). Also, the GI50 in assay [16], in assay [17] and in assay [18] was > 100 µM (inactive) throughout.
`Nc1ccc2n[se]nc2c1`: the GI50 was > 100 µM (inactive) in assay [1]; > 100 µM (inactive) in assay [2]; 79.1 µM (inactive) in assay [3]; > 100 µM (inactive) in assay [4]; > 100 µM (inactive) in assay [5]; > 100 µM (inactive) in [6]. In addition, the GI50 in assay [7] is 42.4 µM (inactive); in assay [8], > 100 µM (inactive); in [10] it was > 100 µM (inactive); in assay [19], > 100 µM (inactive); in [11], > 100 µM (inactive); in assay [13] it was > 100 µM (inactive). Also, the GI50 in assay [14], in assay [15], in [16], in [17] and in assay [18] was > 100 µM (inactive) each time.
